Drawing on PubChem BioAssay AID248 (DTP/NCI, 2004), this text covers T/C for 21 compounds.

In this assay the test system is L1210 leukemia ip in BDF1 mice, survival T/C. The experiment in a line: NCI In Vivo Anticancer Drug Screen. Data for tumor model L1210 Leukemia (intraperitoneal) in B6D2F1 (BDF1) mice. Particulars: endpoint: mean survival time, higher = longer survival. The gist of the method: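 In this screen, tumor-bearing mice given compound are compared to those given vehicle, and their survival values are reported as a treated-to-control quotient.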

[1] abbreviates: dose: 100.0 mg/kg/injection, schedule: Q01DX009 (ip), vehicle: Klucel (hydroxypropylcellulose) (HPC).
Where [2] appears, read: dose: 200.0 mg/kg/injection, schedule: Q01DX009 (ip), vehicle: Klucel (hydroxypropylcellulose) (HPC).
Where [3] appears, read: dose: 400.0 mg/kg/injection, schedule: Q01DX009 (ip), vehicle: Klucel (hydroxypropylcellulose) (HPC).
[4] abbreviates: dose: 100.0 mg/kg/injection, schedule: Q04DX003 (ip), vehicle: Klucel (hydroxypropylcellulose) (HPC).
The mark [5] stands for this setting: dose: 200.0 mg/kg/injection, schedule: Q04DX003 (ip), vehicle: Klucel (hydroxypropylcellulose) (HPC).
The mark [6] stands for this setting: dose: 400.0 mg/kg/injection, schedule: Q04DX003 (ip), vehicle: Klucel (hydroxypropylcellulose) (HPC).
Setting [7] is: dose: 50.0 mg/kg/injection, schedule: Q01DX001 (ip), vehicle: carboxymethylcellulose (CMC).
Where [8] appears, read: dose: 100.0 mg/kg/injection, schedule: Q01DX001 (ip), vehicle: carboxymethylcellulose (CMC).
Where [9] appears, read: dose: 200.0 mg/kg/injection, schedule: Q01DX001 (ip), vehicle: carboxymethylcellulose (CMC).
[10] abbreviates: dose: 400.0 mg/kg/injection, schedule: Q01DX001 (ip), vehicle: carboxymethylcellulose (CMC).

“And” between values parts separate entries of the source, which are not always exact repeats. Equal entries are not always repeated. Toxic doses and inconclusive results are not listed.

On to `Nc1cc(=O)[nH]c(C(F)(F)F)n1`, for which the T/C was 119 % of control (dose: 29.0 mg/kg/injection, schedule: Q01DX Z (ip), vehicle: saline); 98 % of control (dose: 45.0 mg/kg/injection, schedule: Q01DX Z (ip), vehicle: saline); 106 % of control (dose: 67.0 mg/kg/injection, schedule: Q01DX Z (ip), vehicle: saline); 104 % of control (dose: 100.0 mg/kg/injection, schedule: Q01DX Z (ip), vehicle: saline).
For the compound `Cc1cccc(Cl)c1NC(=O)c1cccc(C(=O)Nc2c(C)cccc2Cl)c1`, the T/C runs as follows: under setting [1], 96 % of control; under setting [2], 94 % of control; under setting [3], 91 % of control.
For `NOC(=O)c1ccccc1`, the T/C by setting is: (dose: 100.0 mg/kg/injection, schedule: Q04DX002 (ip), vehicle: saline) 105 % of control; (dose: 200.0 mg/kg/injection, schedule: Q04DX002 (ip), vehicle: saline) 102 % of control.
For the compound `CCC1=CCN2CCC34c5cc(C6(C(=O)OC)CC7CC(CC)CN(CCc8c6[nH]c6ccccc86)C7)c(OC)cc5N(C)C3C(O)(C(=O)OC)C(OC(C)=O)C1C24` (stereo unspecified), the T/C (dose: 0.8 mg/kg/injection, schedule: Q01DX001 (ip), vehicle: saline) was 100 % of control; the T/C (dose: 1.6 mg/kg/injection, schedule: Q01DX001 (ip), vehicle: saline) is 100 % of control; the T/C (dose: 3.2 mg/kg/injection, schedule: Q01DX001 (ip), vehicle: saline) is 101 % of control; the T/C (dose: 6.4 mg/kg/injection, schedule: Q01DX001 (ip), vehicle: saline) was 97 % of control.
In the case of `S=C(Nc1cccc2ccccc12)N1CCOCC1`, the T/C by setting is: under setting [1], 94 % of control; under setting [2], 120 % of control; under setting [3], 96 % of control.
For the compound `Cc1ccc(C2=NN(c3ccccc3)C(c3ccccc3)C2NC2CCCCC2)cc1` (stereo unspecified), the T/C by setting is: (dose: 100.0 mg/kg/injection, schedule: Q01DX009 (ip), vehicle: acetone) 86 % of control; (dose: 400.0 mg/kg/injection, schedule: Q01DX009 (ip), vehicle: acetone) 100 % of control.
Consider `O=C(c1c(F)c(F)c(F)c(F)c1F)N1CC1`, for which the T/C was 96 % of control (dose: 25.0 mg/kg/injection, schedule: Q01DX009 (ip), vehicle: water) and 93 % of control (dose: 50.0 mg/kg/injection, schedule: Q01DX009 (ip), vehicle: water).
In the case of `Cc1ccc(S(=O)(=O)N(CCO)CCO)cc1`, the T/C is, setting by setting: under setting [4], 101 % of control; under setting [5], 100 % of control; under setting [6], 92 % of control.
Take `C(=N\c1oc(-c2ccccc2)nc1SCc1ccccc1)/c1ccccc1`: the T/C reads like this: (dose: 100.0 mg/kg/injection, schedule: Q04DX002 (ip), vehicle: Klucel (hydroxypropylcellulose) (HPC)) 96 % of control; (dose: 200.0 mg/kg/injection, schedule: Q04DX002 (ip), vehicle: Klucel (hydroxypropylcellulose) (HPC)) 96 % of control; (dose: 400.0 mg/kg/injection, schedule: Q04DX002 (ip), vehicle: Klucel (hydroxypropylcellulose) (HPC)) 120 % of control.
As for `Nc1cncc2ncc(-c3ccc(Cl)cc3)nc12`, the T/C (dose: 50.0 mg/kg/injection, schedule: Q01DX001 (ip), vehicle: other) was 105 % of control; the T/C (dose: 100.0 mg/kg/injection, schedule: Q01DX001 (ip), vehicle: other) is 100 % of control; the T/C (dose: 200.0 mg/kg/injection, schedule: Q01DX001 (ip), vehicle: other) was 94 % of control; the T/C (dose: 400.0 mg/kg/injection, schedule: Q01DX001 (ip), vehicle: other) was 96 % of control.
Regarding `Nc1nc(-c2ccccc2)c(CCCOc2ccccc2)c(=O)[nH]1`, the T/C reads like this: (dose: 12.5 mg/kg/injection, schedule: Q01DX009 (ip), vehicle: gum acacia) 95 % of control; (dose: 25.0 mg/kg/injection, schedule: Q01DX009 (ip), vehicle: gum acacia) 109 % of control; (dose: 50.0 mg/kg/injection, schedule: Q01DX009 (ip), vehicle: gum acacia) 100 % of control; (dose: 100.0 mg/kg/injection, schedule: Q01DX009 (ip), vehicle: gum acacia) 92 % of control and 90 % of control; (dose: 400.0 mg/kg/injection, schedule: Q01DX009 (ip), vehicle: gum acacia) 96 % of control.
In the case of `O=C(Nc1cccc(F)c1)Nc1ccccc1Cl`, the T/C was 105 % of control under setting [1], 97 % of control under setting [2] and 95 % of control under setting [3].
Consider `CC1=C(C(=O)O)C(c2ccccc2)CC(=O)N1` (stereo unspecified), for which the T/C is 96 % of control under setting [7], 104 % of control under setting [8], 98 % of control under setting [9] and 98 % of control under setting [10].
With `CCCCCCCCSP(=S)(N1CC1)N1CC1`, the T/C (dose: 50.0 mg/kg/injection, schedule: Q01DX001 (ip), vehicle: saline) was 102 % of control; the T/C (dose: 100.0 mg/kg/injection, schedule: Q01DX001 (ip), vehicle: saline) is 108 % of control; the T/C (dose: 200.0 mg/kg/injection, schedule: Q01DX001 (ip), vehicle: saline) is 98 % of control; the T/C (dose: 400.0 mg/kg/injection, schedule: Q01DX001 (ip), vehicle: saline) was 96 % of control.
With `CS(=O)(=O)OCCN(CCOS(C)(=O)=O)c1ccc(C=Nc2cccc(C(=O)O)c2)cc1`, the T/C is 111 % of control (dose: 2.5 mg/kg/injection, schedule: Q04DX003 (ip), vehicle: Klucel (hydroxypropylcellulose) (HPC)); 120 % of control (dose: 5.0 mg/kg/injection, schedule: Q04DX003 (ip), vehicle: Klucel (hydroxypropylcellulose) (HPC)); 91 % of control (dose: 80.0 mg/kg/injection, schedule: Q04DX003 (ip), vehicle: Klucel (hydroxypropylcellulose) (HPC)).
Turning to `CCn1cnc2cc(N=Cc3ccc(N(CCCl)CCCl)cc3)ccc21`, the T/C (dose: 56.3 mg/kg/injection, schedule: Q04DX002 (ip), vehicle: saline) was 106 % of control; the T/C (dose: 112.5 mg/kg/injection, schedule: Q04DX002 (ip), vehicle: saline) was 117 % of control; the T/C (dose: 225.0 mg/kg/injection, schedule: Q04DX002 (ip), vehicle: saline) is 102 % of control.
Take `COc1cccc(CCO)c1OC`: the T/C runs as follows: under setting [7], 88 % of control; under setting [8], 91 % of control; under setting [9], 88 % of control; under setting [10], 98 % of control.
For `C=C(C)C12OC3(c4ccccc4)OC1C1C4OC4(CO)C(O)C4(O)C(=O)C(C)=CC4C1(O3)C(C)C2OC(=O)/C=C/C=C/c1ccccc1` (stereo unspecified), the T/C runs as follows: (dose: 25.0 micrograms/kg/injection, schedule: Q01DX009 (ip), vehicle: alcohol) 97 % of control; (dose: 50.0 micrograms/kg/injection, schedule: Q01DX009 (ip), vehicle: alcohol) 105 % of control; (dose: 100.0 micrograms/kg/injection, schedule: Q01DX009 (ip), vehicle: alcohol) 92 % of control; (dose: 200.0 micrograms/kg/injection, schedule: Q01DX009 (ip), vehicle: alcohol) 92 % of control; (dose: 400.0 micrograms/kg/injection, schedule: Q01DX009 (ip), vehicle: alcohol) 103 % of control.
In the case of `C[NH-].C[NH-].C[NH-].C[NH-].[Cl][Rh][Cl]`, the T/C runs as follows: under setting [1], 97 % of control; under setting [4], 86 % of control; under setting [5], 94 % of control; under setting [6], 92 % of control.
On to `NC(Cc1c[nH]c2cc(N(CCCl)CCCl)ccc12)C(=O)O` (stereo unspecified), for which the T/C is, setting by setting: (dose: 0.25 mg/kg/injection, schedule: Q01DX Z (ip), vehicle: other) 171 % of control; (dose: 0.5 mg/kg/injection, schedule: Q01DX Z (ip), vehicle: other) 188 % of control; (dose: 125.0 micrograms/kg/injection, schedule: Q01DX009 (ip), vehicle: carboxymethylcellulose (CMC)) 118 % of control; (dose: 500.0 micrograms/kg/injection, schedule: Q01DX009 (ip), vehicle: carboxymethylcellulose (CMC)) 167 % of control; (dose: 1000.0 micrograms/kg/injection, schedule: Q01DX009 (ip), vehicle: carboxymethylcellulose (CMC)) 229 % of control.
Regarding `O=S(=O)(O)c1ccc(Br)cc1`, the T/C is, setting by setting: (dose: 100.0 mg/kg/injection, schedule: Q01DX009 (ip), vehicle: saline) 116 % of control; (dose: 100.0 mg/kg/injection, schedule: Q04DX003 (ip), vehicle: saline) 98 % of control; (dose: 200.0 mg/kg/injection, schedule: Q01DX009 (ip), vehicle: saline) 108 % of control; (dose: 200.0 mg/kg/injection, schedule: Q04DX003 (ip), vehicle: saline) 103 % of control; (dose: 400.0 mg/kg/injection, schedule: Q01DX009 (ip), vehicle: saline) 108 % of control; (dose: 400.0 mg/kg/injection, schedule: Q04DX003 (ip), vehicle: saline) 104 % of control.
